Reference: PMC3515705 (Nature structural & molecular biology, 2012)

Target: scRio2 (Saccharomyces cerevisiae, UniProt P40160)
Sequence (P40160 whole entry): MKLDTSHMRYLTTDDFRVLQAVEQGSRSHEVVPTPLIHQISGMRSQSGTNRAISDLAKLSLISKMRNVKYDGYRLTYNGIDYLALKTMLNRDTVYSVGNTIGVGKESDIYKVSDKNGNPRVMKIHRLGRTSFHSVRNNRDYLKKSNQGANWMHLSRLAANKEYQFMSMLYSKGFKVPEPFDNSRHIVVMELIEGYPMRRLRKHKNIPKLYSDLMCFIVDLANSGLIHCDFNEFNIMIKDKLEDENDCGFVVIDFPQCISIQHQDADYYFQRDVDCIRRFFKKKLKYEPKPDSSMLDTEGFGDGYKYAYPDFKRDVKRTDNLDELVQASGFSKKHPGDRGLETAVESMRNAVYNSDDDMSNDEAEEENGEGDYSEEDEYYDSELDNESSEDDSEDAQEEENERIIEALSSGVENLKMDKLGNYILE

## Nc1ncnc2c1ncn2[C@@H]1O[C@H](COP(=O)(O)OP(=O)(O)OP(=O)(O)O)[C@@H](O)[C@H]1O [ATP]
  autophosphorylation detected by mass spectrometry: phospho-serine residues after incubation of purified recombinant scRio2 with ATP
